Assays:
TSSK1(h) = TSSK1(h) (Homo sapiens, UniProt Q9BXA7); experiment: Upstate kinase activity inhibition assay TSSK1(h); conditions: 40 min, read-out: percentage of enzyme activity that remains
eEF-2K(h) = biological target: T1, eEF-2K(h) (Homo sapiens, UniProt O00418); experiment: Upstate kinase activity inhibition assay eEF-2K(h); assay type: biochemical; conditions: 40 min; read-out: percentage of enzyme activity that remains
T1 construct: purchased Upstate (KinaseProfiler service)

BTK(h) = biological target: T2, BTK(h) (Homo sapiens, UniProt Q06187); experiment: Upstate kinase activity inhibition assay BTK(h); assay type: biochemical
T2 construct: purchased Upstate (KinaseProfiler service)

ErbB4(h) = ErbB4(h) (Homo sapiens, UniProt Q15303); experiment: Upstate kinase activity inhibition assay ErbB4(h); conditions: 40 min, read-out: percentage of enzyme activity that remains
JNK3(h) = biological target: T3, JNK3(h) (Homo sapiens, UniProt P53779); experiment: Upstate kinase activity inhibition assay JNK3(h); assay type: biochemical
T3 construct: purchased Upstate (KinaseProfiler service)

Ron(h) = biological target: T4, Ron(h) (Homo sapiens, UniProt Q04912); experiment: Upstate kinase activity inhibition assay Ron(h); assay type: biochemical; conditions: 40 min; read-out: percentage of enzyme activity that remains
T4 construct: purchased Upstate (KinaseProfiler service)

Fgr(h) = Fgr(h) (Homo sapiens, UniProt P09769); experiment: Upstate kinase activity inhibition assay Fgr(h); conditions: 40 min, read-out: percentage of enzyme activity that remains
KDR(h) = KDR(h) (Homo sapiens, UniProt P35968); experiment: Upstate kinase activity inhibition assay KDR(h); conditions: 40 min, read-out: percentage of enzyme activity that remains
CDK7/cyclinH/MAT1(h) = biological target: T5, CDK7/cyclinH/MAT1(h) (Homo sapiens, UniProt P50613); experiment: Upstate kinase activity inhibition assay CDK7/cyclinH/MAT1(h); assay type: biochemical; conditions: 40 min, read-out: percentage of enzyme activity that remains
T5 construct: purchased Upstate (KinaseProfiler service)

ALK(h) = biological target: T6, ALK(h) (Homo sapiens, UniProt Q9UM73); experiment: Upstate kinase activity inhibition assay ALK(h); assay type: biochemical; conditions: 40 min; read-out: percentage of enzyme activity that remains
T6 construct: purchased Upstate (KinaseProfiler service)

PDGFRβ(h) = biological target: T7, PDGFRβ(h) (Homo sapiens, UniProt P09619); experiment: Upstate kinase activity inhibition assay PDGFRβ(h); assay type: biochemical; conditions: 40 min; read-out: percentage of enzyme activity that remains
T7 construct: purchased Upstate (KinaseProfiler service)

MRCKβ(h) = biological target: T8, MRCKβ(h) (Homo sapiens, UniProt Q9Y5S2); experiment: Upstate kinase activity inhibition assay MRCKβ(h); assay type: biochemical; conditions: 40 min; read-out: percentage of enzyme activity that remains
T8 construct: purchased Upstate (KinaseProfiler service)

PAK4(h) = PAK4(h) (Homo sapiens, UniProt O96013); experiment: Upstate kinase activity inhibition assay PAK4(h); conditions: 40 min, read-out: percentage of enzyme activity that remains
MEK1(h) = MEK1(h) (Homo sapiens, UniProt Q02750); experiment: Upstate kinase activity inhibition assay MEK1(h); conditions: 40 min, read-out: percentage of enzyme activity that remains
SGK(h) = biological target: T9, SGK(h) (Homo sapiens, UniProt O00141, S422D); experiment: Upstate kinase activity inhibition assay SGK(h); assay type: biochemical; conditions: 40 min; read-out: percentage of enzyme activity that remains
T9 construct: purchased Upstate (KinaseProfiler service)

ITK(h) = ITK(h) (Homo sapiens, UniProt Q08881); experiment: Upstate kinase activity inhibition assay ITK(h); conditions: 4 μM Compound E
SIK(h) = SIK(h) (Homo sapiens, UniProt P57059); experiment: Upstate kinase activity inhibition assay SIK(h)
Snk(h) = Snk(h) (Homo sapiens, UniProt Q9NYY3); experiment: Upstate kinase activity inhibition assay Snk(h)
ALK4(h) = ALK4(h) (Homo sapiens, UniProt P36896); experiment: Upstate kinase activity inhibition assay ALK4(h); conditions: 40 min, read-out: percentage of enzyme activity that remains
MST1(h) = biological target: T10, MST1(h) (Homo sapiens, UniProt Q13043); experiment: Upstate kinase activity inhibition assay MST1(h); assay type: biochemical
T10 construct: purchased Upstate (KinaseProfiler service)

Syk(h) = Syk(h) (Homo sapiens, UniProt P43405); experiment: Upstate kinase activity inhibition assay Syk(h)
MuSK(h) = MuSK(h) (Homo sapiens, UniProt O15146); experiment: Upstate kinase activity inhibition assay MuSK(h); conditions: 40 min, read-out: percentage of enzyme activity that remains
ARK5(h) = ARK5(h) (Homo sapiens, UniProt O60285); experiment: Upstate kinase activity inhibition assay ARK5(h)
PAK6(h) = PAK6(h) (Homo sapiens, UniProt Q9NQU5); experiment: Upstate kinase activity inhibition assay PAK6(h); conditions: 40 min, read-out: percentage of enzyme activity that remains
SAPK2a(h) = SAPK2a(h) (Homo sapiens, UniProt Q16539); experiment: Upstate kinase activity inhibition assay SAPK2a(h)
CK2α2(h) = biological target: T11, CK2α2(h) (Homo sapiens, UniProt P19784); experiment: Upstate kinase activity inhibition assay CK2α2(h); assay type: biochemical; conditions: 40 min; read-out: percentage of enzyme activity that remains
T11 construct: purchased Upstate (KinaseProfiler service)

TrkB(h) = TrkB(h) (Homo sapiens, UniProt Q16620); experiment: Upstate kinase activity inhibition assay TrkB(h); conditions: 40 min, read-out: percentage of enzyme activity that remains
MST3(h) = MST3(h) (Homo sapiens, UniProt Q9Y6E0); experiment: Upstate kinase activity inhibition assay MST3(h)
PKCβI(h) = biological target: T12, PKCβI(h) (Homo sapiens, UniProt P05771); experiment: Upstate kinase activity inhibition assay PKCβI(h); assay type: biochemical; conditions: 40 min; read-out: percentage of enzyme activity that remains
T12 construct: purchased Upstate (KinaseProfiler service)

ZIPK(h) = ZIPK(h) (Homo sapiens, UniProt O43293); experiment: Upstate kinase activity inhibition assay ZIPK(h); conditions: 40 min, read-out: percentage of enzyme activity that remains

T4 sequence (Q04912 25-1400): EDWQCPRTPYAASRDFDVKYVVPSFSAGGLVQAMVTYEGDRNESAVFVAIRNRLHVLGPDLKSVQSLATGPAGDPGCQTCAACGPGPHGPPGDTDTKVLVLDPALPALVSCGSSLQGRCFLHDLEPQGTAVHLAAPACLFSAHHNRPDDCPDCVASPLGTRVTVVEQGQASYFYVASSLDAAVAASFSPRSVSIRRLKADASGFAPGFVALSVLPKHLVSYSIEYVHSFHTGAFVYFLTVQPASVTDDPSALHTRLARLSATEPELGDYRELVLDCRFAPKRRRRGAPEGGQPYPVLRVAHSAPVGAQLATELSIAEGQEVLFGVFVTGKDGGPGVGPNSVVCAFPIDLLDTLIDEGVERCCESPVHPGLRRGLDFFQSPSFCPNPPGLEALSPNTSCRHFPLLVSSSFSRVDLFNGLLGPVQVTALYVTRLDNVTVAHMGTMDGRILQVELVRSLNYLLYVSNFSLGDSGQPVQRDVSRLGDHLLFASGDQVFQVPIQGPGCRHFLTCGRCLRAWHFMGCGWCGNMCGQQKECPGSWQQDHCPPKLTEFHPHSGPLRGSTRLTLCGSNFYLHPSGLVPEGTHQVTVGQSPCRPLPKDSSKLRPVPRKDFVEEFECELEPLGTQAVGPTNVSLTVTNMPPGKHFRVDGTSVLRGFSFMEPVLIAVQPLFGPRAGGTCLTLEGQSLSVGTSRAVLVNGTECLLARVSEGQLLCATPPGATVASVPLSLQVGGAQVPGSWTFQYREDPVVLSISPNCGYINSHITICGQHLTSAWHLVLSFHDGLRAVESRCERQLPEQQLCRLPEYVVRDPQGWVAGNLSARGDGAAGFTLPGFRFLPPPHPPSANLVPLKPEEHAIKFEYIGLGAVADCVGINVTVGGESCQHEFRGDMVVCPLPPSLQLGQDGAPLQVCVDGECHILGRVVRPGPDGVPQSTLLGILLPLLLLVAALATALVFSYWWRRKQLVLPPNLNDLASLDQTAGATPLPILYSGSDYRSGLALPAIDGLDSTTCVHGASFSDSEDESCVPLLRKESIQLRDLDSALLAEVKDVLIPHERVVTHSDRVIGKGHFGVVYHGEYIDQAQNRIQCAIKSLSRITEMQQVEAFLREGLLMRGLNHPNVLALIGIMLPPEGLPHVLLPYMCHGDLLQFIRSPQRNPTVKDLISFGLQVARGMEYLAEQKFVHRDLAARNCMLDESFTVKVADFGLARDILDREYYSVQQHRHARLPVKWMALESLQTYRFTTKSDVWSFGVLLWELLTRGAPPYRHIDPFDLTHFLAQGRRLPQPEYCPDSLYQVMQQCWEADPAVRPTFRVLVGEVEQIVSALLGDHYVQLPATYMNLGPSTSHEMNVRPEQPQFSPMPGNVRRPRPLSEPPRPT
Sequence of KDR(h) (P35968 20-1356): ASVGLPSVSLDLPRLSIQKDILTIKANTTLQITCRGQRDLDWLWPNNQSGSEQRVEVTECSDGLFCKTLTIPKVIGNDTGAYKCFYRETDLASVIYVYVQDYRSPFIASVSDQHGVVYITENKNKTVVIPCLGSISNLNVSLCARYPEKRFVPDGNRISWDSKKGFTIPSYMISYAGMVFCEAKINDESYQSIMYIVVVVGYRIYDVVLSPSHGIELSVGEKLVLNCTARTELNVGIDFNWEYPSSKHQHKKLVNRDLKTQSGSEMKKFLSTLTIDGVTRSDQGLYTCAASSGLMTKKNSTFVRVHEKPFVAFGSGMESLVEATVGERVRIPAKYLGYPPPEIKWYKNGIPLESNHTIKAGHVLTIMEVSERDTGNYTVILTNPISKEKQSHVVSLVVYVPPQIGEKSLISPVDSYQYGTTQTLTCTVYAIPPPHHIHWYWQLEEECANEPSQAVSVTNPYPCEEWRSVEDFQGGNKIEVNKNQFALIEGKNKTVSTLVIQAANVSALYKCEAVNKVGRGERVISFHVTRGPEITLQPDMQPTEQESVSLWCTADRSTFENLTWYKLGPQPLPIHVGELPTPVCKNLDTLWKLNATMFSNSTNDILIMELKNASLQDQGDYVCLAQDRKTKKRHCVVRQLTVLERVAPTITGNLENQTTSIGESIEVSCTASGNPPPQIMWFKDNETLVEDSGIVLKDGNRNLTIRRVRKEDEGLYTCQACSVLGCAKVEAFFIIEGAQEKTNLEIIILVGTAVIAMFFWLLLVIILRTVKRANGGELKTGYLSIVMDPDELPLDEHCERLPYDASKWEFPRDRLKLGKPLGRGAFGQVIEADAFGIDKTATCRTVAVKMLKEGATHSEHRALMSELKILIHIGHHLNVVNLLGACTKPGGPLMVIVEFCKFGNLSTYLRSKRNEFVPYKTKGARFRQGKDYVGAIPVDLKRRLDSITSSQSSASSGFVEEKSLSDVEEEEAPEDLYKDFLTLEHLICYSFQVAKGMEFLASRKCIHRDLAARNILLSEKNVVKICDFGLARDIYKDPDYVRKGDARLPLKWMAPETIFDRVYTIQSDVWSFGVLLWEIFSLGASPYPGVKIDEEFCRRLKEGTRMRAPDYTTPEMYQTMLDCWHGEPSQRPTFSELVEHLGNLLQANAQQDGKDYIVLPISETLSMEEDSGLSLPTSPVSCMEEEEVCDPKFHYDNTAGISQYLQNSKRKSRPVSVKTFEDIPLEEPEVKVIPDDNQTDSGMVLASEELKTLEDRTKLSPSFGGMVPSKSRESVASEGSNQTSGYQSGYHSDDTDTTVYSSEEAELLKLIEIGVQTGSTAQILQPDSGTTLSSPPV
Sequence of TSSK1(h) (Q9BXA7 whole entry): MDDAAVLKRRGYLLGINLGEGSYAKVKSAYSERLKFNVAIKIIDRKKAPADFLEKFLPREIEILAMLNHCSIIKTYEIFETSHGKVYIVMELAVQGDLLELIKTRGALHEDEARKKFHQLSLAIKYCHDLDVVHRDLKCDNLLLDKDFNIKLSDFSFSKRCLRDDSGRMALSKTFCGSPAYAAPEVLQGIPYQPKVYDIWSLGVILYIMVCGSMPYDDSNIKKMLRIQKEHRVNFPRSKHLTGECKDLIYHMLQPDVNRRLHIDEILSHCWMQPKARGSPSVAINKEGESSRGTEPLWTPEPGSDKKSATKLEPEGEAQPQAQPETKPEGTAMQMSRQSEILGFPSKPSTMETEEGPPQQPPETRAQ
Sequence of ARK5(h) (O60285 whole entry): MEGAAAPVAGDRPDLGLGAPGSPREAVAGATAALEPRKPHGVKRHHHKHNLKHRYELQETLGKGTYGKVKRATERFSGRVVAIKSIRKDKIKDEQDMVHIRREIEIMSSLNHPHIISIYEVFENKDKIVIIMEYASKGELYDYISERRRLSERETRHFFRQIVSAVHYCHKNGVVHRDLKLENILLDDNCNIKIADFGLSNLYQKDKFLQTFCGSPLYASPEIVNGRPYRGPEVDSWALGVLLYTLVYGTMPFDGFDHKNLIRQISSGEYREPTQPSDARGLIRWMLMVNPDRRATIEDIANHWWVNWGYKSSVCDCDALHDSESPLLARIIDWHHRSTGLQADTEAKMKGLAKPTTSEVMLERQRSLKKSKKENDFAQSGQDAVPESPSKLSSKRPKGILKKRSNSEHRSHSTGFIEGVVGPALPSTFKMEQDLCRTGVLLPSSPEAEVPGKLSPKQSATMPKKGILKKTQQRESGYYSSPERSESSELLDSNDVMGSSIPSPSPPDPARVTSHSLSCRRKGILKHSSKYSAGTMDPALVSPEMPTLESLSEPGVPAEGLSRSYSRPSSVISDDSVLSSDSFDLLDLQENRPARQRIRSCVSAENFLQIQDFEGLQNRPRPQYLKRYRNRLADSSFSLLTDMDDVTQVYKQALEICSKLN
Sequence of ErbB4(h) (Q15303 26-1308): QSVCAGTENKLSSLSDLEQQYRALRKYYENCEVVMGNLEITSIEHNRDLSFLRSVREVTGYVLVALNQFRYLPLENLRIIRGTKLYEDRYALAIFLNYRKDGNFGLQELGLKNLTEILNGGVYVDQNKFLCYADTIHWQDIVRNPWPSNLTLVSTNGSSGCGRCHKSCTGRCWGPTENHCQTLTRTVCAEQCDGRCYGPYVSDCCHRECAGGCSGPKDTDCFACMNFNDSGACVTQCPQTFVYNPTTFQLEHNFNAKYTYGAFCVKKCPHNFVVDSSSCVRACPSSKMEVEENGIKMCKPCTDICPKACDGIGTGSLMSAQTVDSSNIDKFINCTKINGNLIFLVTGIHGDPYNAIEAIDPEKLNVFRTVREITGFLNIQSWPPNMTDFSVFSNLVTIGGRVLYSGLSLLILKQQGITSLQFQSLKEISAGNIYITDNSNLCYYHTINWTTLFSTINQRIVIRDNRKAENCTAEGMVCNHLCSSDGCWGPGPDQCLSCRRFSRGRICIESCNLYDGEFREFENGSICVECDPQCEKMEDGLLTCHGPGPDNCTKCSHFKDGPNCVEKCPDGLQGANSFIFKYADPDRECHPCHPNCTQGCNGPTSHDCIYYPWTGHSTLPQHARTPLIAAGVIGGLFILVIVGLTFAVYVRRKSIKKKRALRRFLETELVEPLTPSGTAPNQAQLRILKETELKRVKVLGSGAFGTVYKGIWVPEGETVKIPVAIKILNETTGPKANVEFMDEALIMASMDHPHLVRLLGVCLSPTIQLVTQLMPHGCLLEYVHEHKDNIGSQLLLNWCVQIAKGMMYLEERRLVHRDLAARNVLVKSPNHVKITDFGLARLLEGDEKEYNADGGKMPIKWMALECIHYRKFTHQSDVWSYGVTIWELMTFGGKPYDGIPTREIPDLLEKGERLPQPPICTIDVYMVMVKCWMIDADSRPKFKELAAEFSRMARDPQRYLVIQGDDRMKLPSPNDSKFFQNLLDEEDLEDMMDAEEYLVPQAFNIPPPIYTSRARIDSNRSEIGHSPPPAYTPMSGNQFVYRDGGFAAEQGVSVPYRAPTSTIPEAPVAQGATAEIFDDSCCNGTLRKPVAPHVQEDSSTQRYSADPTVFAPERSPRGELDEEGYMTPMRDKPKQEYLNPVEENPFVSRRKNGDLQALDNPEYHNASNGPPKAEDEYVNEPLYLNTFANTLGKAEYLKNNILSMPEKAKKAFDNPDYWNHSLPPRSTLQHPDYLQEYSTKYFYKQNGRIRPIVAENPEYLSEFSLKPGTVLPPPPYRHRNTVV

SMILES: Cc1cc(Nc2cc(N3CCN(C)CC3)nc(Sc3ccc(NC(=O)C4CC4)cc3)n2)n[nH]1 [Compound E, Cyclopropane carboxylic acid {4-[4-(4-methyl-piperazin-1-yl)-6-(5-methyl-2H-pyrazol-3-ylamino)-pyrimidin-2-ylsulphanyl]-phenyl}-amide]
- remaining activity at 0.2 µM (TSSK1(h)): 122%
- remaining activity at 4 µM (TSSK1(h)): 99%
- remaining activity at 0.2 µM (eEF-2K(h)): 91%
- remaining activity at 4 µM (eEF-2K(h)): 82%
- percentage of enzyme activity that remains (BTK(h); 0.2 μM Compound E): 93%
- percentage of enzyme activity that remains (BTK(h); 4 μM Compound E): 49%
- remaining activity at 0.2 µM (ErbB4(h)): 53%
- remaining activity at 4 µM (ErbB4(h)): 52%
- percentage of enzyme activity that remains (JNK3(h); 0.2 μM Compound E): 94%
- percentage of enzyme activity that remains (JNK3(h); 4 μM Compound E): 69%
- remaining activity at 0.2 µM (Ron(h)): 95%
- remaining activity at 4 µM (Ron(h)): 48%
- remaining activity at 0.2 µM (Fgr(h)): 71%
- remaining activity at 4 µM (Fgr(h)): 12%
- remaining activity at 0.2 µM (KDR(h)): 87%
- remaining activity at 4 µM (KDR(h)): 20%
- remaining activity at 0.2 µM (CDK7/cyclinH/MAT1(h)): 113%
- remaining activity at 4 µM (CDK7/cyclinH/MAT1(h)): 94%
- remaining activity at 0.2 µM (ALK(h)): 70%
- remaining activity at 4 µM (ALK(h)): 58%
- remaining activity at 0.2 µM (PDGFRβ(h)): 102%
- remaining activity at 4 µM (PDGFRβ(h)): 90%
- remaining activity at 4 µM (MRCKβ(h)): 100%
- remaining activity at 0.2 µM (PAK4(h)): 85%
- remaining activity at 4 µM (PAK4(h)): 75%
- remaining activity at 0.2 µM (MEK1(h)): 115%
- remaining activity at 4 µM (MEK1(h)): 82%
- remaining activity at 0.2 µM (SGK(h)): 113%
- remaining activity at 4 µM (SGK(h)): 109%
- percentage of enzyme activity that remains (ITK(h)): 12%
- percentage of enzyme activity that remains (SIK(h); 0.2 μM Compound E): 95%
- percentage of enzyme activity that remains (SIK(h); 4 μM Compound E): 61%
- percentage of enzyme activity that remains (Snk(h); 0.2 μM Compound E): 99%
- percentage of enzyme activity that remains (Snk(h); 4 μM Compound E): 103%
- remaining activity at 0.2 µM (ALK4(h)): 103%
- remaining activity at 4 µM (ALK4(h)): 124%
- percentage of enzyme activity that remains (MST1(h); 0.2 μM Compound E): 88%
- percentage of enzyme activity that remains (MST1(h); 4 μM Compound E): 38%
- percentage of enzyme activity that remains (Syk(h); 0.2 μM Compound E): 113%
- percentage of enzyme activity that remains (Syk(h); 4 μM Compound E): 63%
- remaining activity at 0.2 µM (MuSK(h)): 89%
- remaining activity at 4 µM (MuSK(h)): 8%
- percentage of enzyme activity that remains (ARK5(h); 0.2 μM Compound E): 53%
- percentage of enzyme activity that remains (ARK5(h); 4 μM Compound E): 11%
- remaining activity at 0.2 µM (PAK6(h)): 92%
- remaining activity at 4 µM (PAK6(h)): 92%
- percentage of enzyme activity that remains (SAPK2a(h); 0.2 μM Compound E): 116%
- percentage of enzyme activity that remains (SAPK2a(h); 4 μM Compound E): 123%
- remaining activity at 0.2 µM (CK2α2(h)): 100%
- remaining activity at 0.2 µM (TrkB(h)): 71%
- remaining activity at 4 µM (TrkB(h)): 1%
- percentage of enzyme activity that remains (MST3(h); 0.2 μM Compound E): 97%
- percentage of enzyme activity that remains (MST3(h); 4 μM Compound E): 140%
- remaining activity at 0.2 µM (PKCβI(h)): 100%
- remaining activity at 4 µM (PKCβI(h)): 98%
- remaining activity at 0.2 µM (ZIPK(h)): 100%
